Literature values in US12290506B2, “Compositions and formulations for use of a PK inhibitor for the prevention, treatment, and improvement of skin diseases, conditions, and disorders” (DermBiont, Inc., priority 2022, dated 2025).

Test system: UV induced neo-melanogenesis
Conditions: topical application, guinea pig model

In the case of bisindolylmaleimide, the UV induced neo-melanogenesis is listed as “inhibit UV induced neo-melanogenesis”.
